From ChEMBL document CHEMBL1121781, “Potential antitumor agents. 34. Quantitative relationships between DNA binding and molecular structure for 9-anilinoacridines substituted in the anilino ring” (J Med Chem, 1981)
Activity calls are given as the source filed them. The calls are words filed in the database; no cut-off is given here.

Assays:
Calf thymus DNA [1] = conditions: Bos taurus
Description: (§1) Inhibitory concentration against ethidium binding to DNA

Nucleic Acid [2] = test system: Nucleic Acid
Description: Association constant for binding to poly [d(G-C)]

Nucleic Acid [3] = test system: Nucleic Acid; remark: listed apart in the source
Description: Association constant for binding to poly [d(A-T)]

Calf thymus DNA [4] = conditions: Bos taurus; remark: listed apart in the source
Description: as §1

Description for Mus musculus: Maximum percent increase in life span of mice
Description for physchem: Ionisation constant (pKa)

| SMILES | C50 (Calf thymus DNA [1]) [µM] | Log K (Nucleic Acid [2]) | pKa (physchem) | Log K (Nucleic Acid [3]) | ILS (Mus musculus) | C50 (Calf thymus DNA [4]) [µM] |
| --- | --- | --- | --- | --- | --- | --- |
| Cc1ccccc1Nc1c2ccccc2nc2ccccc12 | 67 | 5.23 | 7.76 | 5.25 |  |  |
| N#Cc1ccc(Nc2c3ccccc3nc3ccccc23)cc1 |  | 5.86 | 5.93 | 5.7 | inactive | 15 |
| Fc1ccc(Nc2c3ccccc3nc3ccccc23)cc1 |  | 5.85 | 7.5 | 5.9 | inactive | 16 |
